{"source": "patent US7544773B2", "about": "(priority 2003, dated 2009)", "molecular_target": "Caf1M-Caf1, Caf1M-(Caf1)2 and Caf1M-(Caf1)3 complexes (Yersinia pestis, UniProt P26948)", "sequence (P26948 22-170 limits assumed, one chain of several)": "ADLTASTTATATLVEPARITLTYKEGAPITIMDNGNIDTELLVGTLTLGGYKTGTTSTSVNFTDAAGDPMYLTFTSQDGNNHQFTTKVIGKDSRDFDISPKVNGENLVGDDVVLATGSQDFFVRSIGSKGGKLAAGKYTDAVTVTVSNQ", "note": "No end group written: not given here."}
{"substance": "ATATLV", "values": [{"measurement": "dissociation of the complexes to free Caf1M and Caf1", "result": "some dissociation"}, {"measurement": "formation of high molecular weight complexes (polymerization)", "result": "polymerization was completely inhibited"}]}
